Measurements published in patent publication US20260053932A1, “COMPOUNDS AND METHODS FOR THE TARGETED DEGRADATION OF ANDROGEN RECEPTOR AND ASSOCIATED METHODS OF USE” (Arvinas Operations, Inc., priority 2020, published 2026).

test system: androgen receptor (AR) in LNCaP and/or VCaP cells; test: Androgen Receptor ELISA assay (AR degradation); format: cell-based; conditions: LNCaP and/or VCaP cells; 5 hours incubation; media with R1881; read-out: DC50 Code* (degradation of AR ELISA)
Procedure, shortened: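 VCaP cells grown ≥3 days, then treated 5 h with compound in media containing 1 nM R1881 (10× stock). Cells lysed and AR quantified by sandwich ELISA (mouse AR detection Ab, HRP anti-mouse, TMB). DC50 and Dmax derived from AR degradation.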

Structure (SMILES)	DC50
COCCN(CC1CCN(c2cnc(C(=O)N[C@H]3CC[C@H](Oc4ccc(C#N)c(Cl)c4)CC3)cn2)CC1)[C@H]1C[C@H](Oc2ccc3c(c2)C(=O)N(C2CCC(=O)NC2=O)C3)C1 (some centres unmarked) [Compound 24, N-((1r,4r)-4-(3-chloro-4-cyanophenoxy)cyclohexyl)-5-(4-((((1r,3r)-3-((2-(2,6-dioxopiperidin-3-yl)-3-oxoisoindolin-5-yl)oxy)cyclobutyl)(2-methoxyethyl)amino)methyl)piperidin-1-yl)pyrazine-2-carboxamide]	< 1 nM
N#Cc1ccc(O[C@H]2CC[C@H](NC(=O)c3ccn(C4CCC(CN5CCN(c6ccc7c(c6)CN(C6CCC(=O)NC6=O)C7=O)CC5)CC4)n3)CC2)cc1Cl (some centres unmarked) [Compound 71, N-((1r,4r)-4-(3-chloro-4-cyanophenoxy)cyclohexyl)-1-(4-((4-(2-(2,6-dioxopiperidin-3-yl)-1-oxoisoindolin-5-yl)piperazin-1-yl)methyl)cyclohexyl)-1H-pyrazole-3-carboxamide]	1 to 10 nM
COc1cc(O[C@H]2C[C@H](N(CC3CCN(c4ncc(C(=O)N[C@@H]5CC[C@@H](Oc6cc(C)c(C#N)c(C)c6)C5)cn4)CC3)C(C)C)C2)cc2c1C(=O)N(C1CCC(=O)NC1=O)C2=O (stereo partly drawn) [Compound 8, N-((1R,3R)-3-(4-cyano-3,5-dimethylphenoxy)cyclopentyl)-2-(4-((((1r,3R)-3-((2-(2,6-dioxopiperidin-3-yl)-7-methoxy-1,3-dioxoisoindolin-5-yl)oxy)cyclobutyl) (isopropyl)amino)methyl)piperidin-1-yl)pyrimidine-5-carboxamide]	> 100 nM
COCCN(CC1CCN(c2cnc(C(=O)N[C@H]3CC[C@H](Oc4ccc(C#N)c(Cl)c4)CC3)cn2)CC1)[C@H]1C[C@H](Oc2ccc3c(c2)CN(C2CCC(=O)NC2=O)C3=O)C1 (some centres unmarked) [Compound 16, N-((1r,4r)-4-(3-chloro-4-cyanophenoxy)cyclohexyl)-5-(4-((((1r,3r)-3-((2-(2,6-dioxopiperidin-3-yl)-1-oxoisoindolin-5-yl)oxy)cyclobutyl)(2-methoxyethyl)amino)methyl)piperidin-1-yl)pyrazine-2-carboxamide]	< 1 nM
COc1cc(O[C@H]2C[C@H](N(CC3CCN(c4cnc(C(=O)N[C@H]5CC[C@H](Oc6ccc(C#N)c(Cl)c6)CC5)cn4)CC3)C(C)C)C2)cc2c1C(=O)N(C1CCC(=O)NC1=O)C2=O (some centres unmarked) [Compound 14, N-((1r,4r)-4-(3-chloro-4-cyanophenoxy)cyclohexyl)-5-(4-((((1r,3r)-3-((2-(2,6-dioxopiperidin-3-yl)-7-methoxy-1,3-dioxoisoindolin-5-yl)oxy)cyclobutyl) (isopropyl)amino)methyl)piperidin-1-yl)pyrazine-2-carboxamide]	< 1 nM
COc1cc(O[C@H]2C[C@H](N(CC3CCN(c4cnc(C(=O)N[C@H]5CC[C@H](Oc6ccc(C#N)c(C)c6)CC5)cn4)CC3)C(C)C)C2)cc2c1C(=O)N(C1CCC(=O)NC1=O)C2=O (some centres unmarked) [Compound 78, N-((1r,4r)-4-(4-cyano-3-methylphenoxy)cyclohexyl)-5-(4-((((1r,3r)-3-((2-(2,6-dioxopiperidin-3-yl)-7-methoxy-1,3-dioxoisoindolin-5-yl)oxy)cyclobutyl) (isopropyl)amino)methyl)piperidin-1-yl)pyrazine-2-carboxamide]	< 1 nM

same assay, conditions: degradation of AR ELISA in LNCaP and/or VCaP cells; Table 2C; read-out: DC50 Code*

Structure (SMILES)	DC50
[2H]C([2H])([2H])Oc1cc(O[C@H]2C[C@H](N(CC3CCN(c4cnc(C(=O)N[C@H]5C(C)(C)[C@H](Oc6ccc(C#N)c(OC)c6)C5(C)C)cn4)CC3)C(C)C)C2)cc2c1C(=O)N(C1CCC(=O)NC1=O)C2=O (mixture of isomers) [compound 203, rac-N-((1r,3r)-3-(4-cyano-3-methoxyphenoxy)-2,2,4,4-tetramethylcyclobutyl)-5-(4-((((1r,3r)-3-((2-(2,6-dioxopiperidin-3-yl)-7-(methoxy-d3)-1,3-dioxoisoindolin-5-yl)oxy)cyclobutyl) (isopropyl)amino)methyl)piperidin-1-yl)pyrazine-2-carboxamide]	< 1 nM
Cc1cc(O[C@H]2C(C)(C)[C@H](NC(=O)c3cnc(N4CC(CN[C@H]5C[C@H](Oc6ccc7c(c6)C(=O)N(C6CCC(=O)NC6=O)C7=O)C5)C4)cn3)C2(C)C)cc(C)c1C#N (some centres unmarked) [compound 118, N-((1r,3r)-3-(4-cyano-3,5-dimethylphenoxy)-2,2,4,4-tetramethylcyclobutyl)-5-(3-((((1r,3r)-3-((2-(2,6-dioxopiperidin-3-yl)-1,3-dioxoisoindolin-5-yl)oxy)cyclobutyl)amino)methyl)azetidin-1-yl)pyrazine-2-carboxamide]	< 1 nM
COc1cc(O[C@H]2C[C@H](N(C)CCOC3CCN(c4ccc(C(=O)N[C@H]5C(C)(C)[C@H](Oc6cc(C)c(C#N)c(C)c6)C5(C)C)cc4)CC3)C2)cc2c1C(=O)N(C1CCC(=O)NC1=O)C2=O (some centres unmarked) [compound 164, N-((1r,3r)-3-(4-cyano-3,5-dimethylphenoxy)-2,2,4,4-tetramethylcyclobutyl)-4-(4-(2-(((1r,3r)-3-((2-(2,6-dioxopiperidin-3-yl)-7-methoxy-1,3-dioxoisoindolin-5-yl)oxy)cyclobutyl) (methyl)amino)ethoxy)piperidin-1-yl)benzamide]	< 1 nM
COCCN(CC1CCN(c2ccc(C(=O)N[C@H]3C(C)(C)[C@H](Oc4cc(C)c(C#N)c(C)c4)C3(C)C)cc2)CC1)[C@H]1C[C@H](Oc2ccc3c(c2)C(=O)N(C2CCC(=O)NC2=O)C3=O)C1 (some centres unmarked) [compound 96, N-((1r,3r)-3-(4-cyano-3,5-dimethylphenoxy)-2,2,4,4-tetramethylcyclobutyl)-4-(4-((((1r,3r)-3-((2-(2,6-dioxopiperidin-3-yl)-1,3-dioxoisoindolin-5-yl)oxy)cyclobutyl)(2-methoxyethyl)amino)methyl)piperidin-1-yl)benzamide]	< 1 nM
Cc1cc(O[C@H]2C(C)(C)[C@H](NC(=O)c3cnc(N4CCC(CN(C)[C@H]5C[C@H](Oc6ccc7c(c6)C(=O)N(C6CCC(=O)NC6=O)C7=O)C5)CC4)nc3)C2(C)C)cc(C)c1C#N (some centres unmarked) [compound 86, N-((1r,3r)-3-(4-cyano-3,5-dimethylphenoxy)-2,2,4,4-tetramethylcyclobutyl)-2-(4-((((1r,3r)-3-((2-(2,6-dioxopiperidin-3-yl)-1,3-dioxoisoindolin-5-yl)oxy)cyclobutyl) (methyl)amino)methyl)piperidin-1-yl)pyrimidine-5-carboxamide]	< 1 nM
CC(C)N(CC1CCN(c2ncc(C(=O)N[C@H]3C(C)(C)[C@H](Oc4ccc(C#N)c(Cl)c4)C3(C)C)cn2)CC1)[C@H]1C[C@H](Oc2ccc3c(c2)C(=O)N(C2CCC(=O)NC2=O)C3)C1 (some centres unmarked) [compound 95, N-((1r,3r)-3-(3-chloro-4-cyanophenoxy)-2,2,4,4-tetramethylcyclobutyl)-2-(4-((((1r,3r)-3-((2-(2,6-dioxopiperidin-3-yl)-3-oxoisoindolin-5-yl)oxy)cyclobutyl) (isopropyl)amino)methyl)piperidin-1-yl)pyrimidine-5-carboxamide]	< 1 nM
CCN(CC1CCN(c2cnc(C(=O)N[C@H]3C(C)(C)[C@H](Oc4cc(C)c(C#N)c(C)c4)C3(C)C)cn2)CC1)[C@H]1C[C@H](Oc2cc(OC)c3c(c2)C(=O)N(C2CCC(=O)NC2=O)C3=O)C1 (some centres unmarked) [Compound 207, N-((1r,3r)-3-(4-cyano-3,5-dimethylphenoxy)-2,2,4,4-tetramethylcyclobutyl)-5-(4-((((1r,3r)-3-((2-(2,6-dioxopiperidin-3-yl)-7-methoxy-1,3-dioxoisoindolin-5-yl)oxy)cyclobutyl)(ethyl)amino)methyl)piperidin-1-yl)pyrazine-2-carboxamide]	< 1 nM
[2H]C([2H])([2H])Oc1cc(O[C@H]2C[C@H](N(CC3CCN(c4ccc(C(=O)N[C@H]5C(C)(C)[C@H](Oc6cc(C)c(C#N)c(C)c6)C5(C)C)cc4)CC3)C(C)C)C2)cc2c1C(=O)N(C1CCC(=O)NC1=O)C2=O (mixture of isomers) [compound 153, rac-N-((1r,3r)-3-(4-cyano-3,5-dimethylphenoxy)-2,2,4,4-tetramethylcyclobutyl)-4-(4-((((1r,3r)-3-((2-(2,6-dioxopiperidin-3-yl)-7-(methoxy-d3)-1,3-dioxoisoindolin-5-yl)oxy)cyclobutyl) (isopropyl)amino)methyl)piperidin-1-yl)benzamide]	< 1 nM
CC(C)N(CC1CCN(c2ncc(C(=O)N[C@H]3C(C)(C)[C@H](Oc4ccc(C#N)c(Cl)c4)C3(C)C)cn2)CC1)[C@H]1CC[C@H](Oc2ccc3c(c2)C(=O)N(C2CCC(=O)NC2=O)C3=O)CC1 (some centres unmarked) [compound 84, N-((1r,3r)-3-(3-chloro-4-cyanophenoxy)-2,2,4,4-tetramethylcyclobutyl)-2-(4-((((1r,4r)-4-((2-(2,6-dioxopiperidin-3-yl)-1,3-dioxoisoindolin-5-yl)oxy)cyclohexyl) (isopropyl)amino)methyl)piperidin-1-yl)pyrimidine-5-carboxamide]	< 1 nM
Cc1cc(O[C@H]2C(C)(C)[C@H](NC(=O)c3ccc(N4CCC(CN5CCCC[C@H]5COc5ccc6c(c5)C(=O)N(C5CCC(=O)NC5=O)C6=O)CC4)cc3)C2(C)C)cc(C)c1C#N (stereo partly drawn) [compound 162, N-((1r,3S)-3-(4-cyano-3,5-dimethylphenoxy)-2,2,4,4-tetramethylcyclobutyl)-4-(4-(((2S)-2-(((2-(2,6-dioxopiperidin-3-yl)-1,3-dioxoisoindolin-5-yl)oxy)methyl)piperidin-1-yl)methyl)piperidin-1-yl)benzamide]	< 1 nM
CC1(C)[C@H](NC(=O)c2ccc(N3CCC(CN(CCN4CCOCC4)[C@H]4C[C@H](Oc5ccc6c(c5)C(=O)N(C5CCC(=O)NC5=O)C6=O)C4)CC3)cc2)C(C)(C)[C@H]1Oc1ccc(C#N)c(Cl)c1 (some centres unmarked) [compound 219, N-((1r,3r)-3-(3-chloro-4-cyanophenoxy)-2,2,4,4-tetramethylcyclobutyl)-4-(4-((((1r,3r)-3-((2-(2,6-dioxopiperidin-3-yl)-1,3-dioxoisoindolin-5-yl)oxy)cyclobutyl)(2-morpholinoethyl)amino)methyl)piperidin-1-yl)benzamide]	< 1 nM
